Measured values published in paper PMC12921516 (ACS Bio & Med Chem Au, 2025).

Columns and labels:
hPTP1B1–400 [1] = target: T1, hPTP1B1–400 (Homo sapiens, UniProt P18031); test: PTP1B inhibition, pNPP hydrolysis, long form; type: biochemical; settings: pNPP substrate, 15 min 37 °C, pH 6.8; ± S.D
T1 construct: h PTP1B 1–400 IC 50 (μM ± S.D); made in house
T1 sequence (P18031 1-400): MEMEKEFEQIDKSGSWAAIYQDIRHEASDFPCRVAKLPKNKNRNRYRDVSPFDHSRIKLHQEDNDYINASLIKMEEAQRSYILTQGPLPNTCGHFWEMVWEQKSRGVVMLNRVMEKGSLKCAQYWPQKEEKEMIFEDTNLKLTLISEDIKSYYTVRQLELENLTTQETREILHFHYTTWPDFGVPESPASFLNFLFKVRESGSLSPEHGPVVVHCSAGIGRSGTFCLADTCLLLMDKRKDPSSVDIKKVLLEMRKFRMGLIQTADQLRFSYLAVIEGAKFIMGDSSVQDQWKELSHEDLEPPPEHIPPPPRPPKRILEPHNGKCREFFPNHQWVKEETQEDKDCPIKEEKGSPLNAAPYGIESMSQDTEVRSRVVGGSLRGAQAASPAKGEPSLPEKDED
Procedure: The inhibitory activity of PTP1B was assessed using the long form of the PTP1B enzyme (hPTP1B1–400). This enzyme comprises a highly conserved N-terminal catalytic domain, known as the PTP domain (PTP1B1–300), in addition to an intrinsically disordered regulatory domain (PTP1B301–400).
The IC50 values obtained from these tests are detailed in Table .
Aliquots of 0–10 μL of the test compounds (triplicate) were taken and incubated for 15 min at 37 °C with 85 μL of Tris buffer solution (50 mM, pH 6.8) containing PTP1B enzyme and 5 μL of p-nitrophenyl phosphate substrate (pNPP, 10 mM). The absorbance of the hydrolysis product, p-nitrophenol (pNP), was measured at 405 nm using a 96-microplate absorbance reader (Accuris SmartReader 96). The inhibitory activity was determined according to eq . %enzyme=(A405b/A405c)×100 1 Where: % enzyme is the percentage of inhibition for PTP1B or TCPTP
The IC50 was calculated using regression analysis, eq : %inhibition=A100/1+(I/IC50)^s 2 Where: A100: Maximum inhibition

hPTP1B1–400 [2] = target: T1, hPTP1B1–400; test: Enzymatic kinetics studies (Lineweaver–Burk, model fitting); type: biochemical; settings: for inhibition type: hPTP1B1–400, best fit model; for Ki: hPTP1B1–400, pNPP 0.1–0.5 mM; for Km / Vmax: hPTP1B1–400 with inhibitor
Procedure: Kinetic analyses were conducted using varying concentrations of substrate and inhibitor.
Five increasing concentrations of each inhibitor were tested, according to their previously determined IC50 values. The negative control was prepared by omitting the inhibitor in the presence of the enzyme and substrate. The Supporting Information includes detailed eqs (E1–E5) used to determine the kinetic parameters and mechanisms involved in PTP1B inhibition.
Equation 1 was used to obtain enzyme kinetic parameters by fitting data to the Michaelis-Menten model (Origin Pro
The equations defined for the following non-linear inhibition models were used to determine the mechanism of
PTP1B inhibition: competitive (E2), non-competitive (E3), uncompetitive (E4), and mixed (E5) (Origin Pro 2018 (64
(1+ ( ))(x05nh ) + (1+ ( )) (x05 nh)
Vmax is the maximum velocity, x is the substrate concentration, i is the inhibitor concentration, nh is the number of
Hill. Ki is the inhibition constant, and Km is the Michaelis constant.

[3] = system: STZ-induced diabetic CD-1 mice; test: Insulin tolerance test (ITT); type: in vivo; settings: single intragastric dose 50 mg/kg, insulin 0.75 IU after 30 min
Procedure: The studies were carried out on compounds 4b, 4g, and 5g using both normoglycemic CD1 mice and a mouse model of noninsulin-dependent diabetes mellitus (NIDDM). An oral glucose tolerance test (OGTT) was conducted on the normoglycemic mice to evaluate the hypoglycemic activity of the compounds, while an insulin tolerance test (ITT) was performed on hyperglycemic CD1 mice to assess the compounds' capacity to enhance insulin sensitivity in streptozotocin-induced diabetic mice. Pioglitazone and GA were included as positive controls. […] Healthy six-week-old male CD-1 mice, weighing between 30 and 40 g, were maintained at a temperature of 25 ± 2 °C, under a 12-h light/dark cycle and 45-65% humidity throughout the experimental period. The mice were provided with a rodent pelleted diet (Harlan Laboratories, Indianapolis, USA) and had access to water ad libitum. Sixteen hours before the experiment, all mice were fasted but still had free access to water. All animal procedures were conducted in accordance with the Mexican Federal Regulations for Animal Experimentation and Care (SAGARPA, NOM-062-ZOO-1999, Mexico) and received approval from the Institutional Animal Care and Use Committee, following guidelines outlined in the US National Institutes of Health publication (No. 85-23, revised 1985). Streptozotocin (STZ) was dissolved in citrate buffer (pH 4.5), while nicotinamide was dissolved in a normal physiological saline solution. The noninsulin-dependent diabetes (NIDD) mouse model was induced in overnight-fasted mice through a single intraperitoneal injection of STZ (100 mg/kg). Nicotinamide was administered 15 min prior, at a dose of 20 mg/kg via intraperitoneal injection. […] Roche). […] Animals were categorized into five groups, each consisting of four mice (n = 4). The experimental groups received an oral suspension of compounds 4b, 4g, and 5g, prepared in a 10% Tween 20/water solution, at a dosage of 50 mg/kg body weight. A control group was treated with only the 10% Tween 20 solution. The final group was administered pioglitazone at a dose of 45 mg/kg, which is recognized as a reference drug for insulin sensitization. To evaluate glucose levels, blood samples were collected from the tails of the mice at 0, 30, 60, 90, and 120 min after the administration of the vehicle, test compound, or drug. Blood glucose concentration was measured using a commercial glucometer (Accu-Chek, Performa; Roche) and the enzymatic glucose dehydrogenase method. The percentage variation in glycemia was calculated by comparing the selected postadministration glycemia (G x ) with the initial value (G0) using the following formula: %[…]=[(Gx-G0)/G0]×100 where G0 represents the initial glycemia values and Gx indicates the glycemia values at +30, + 60, + 90, and +120 min, respectively. To evaluate the ability of GA derivatives to enhance insulin sensitivity in STZ-induced diabetic CD-1 mice, compounds 4b, 4g, and 5g were tested. Glycyrrhetinic acid (GA) and Pioglitazone served as positive controls. The GA derivatives and the positive controls were administered to the diabetic animals, followed by the administration of human rapid-acting insulin (0.75 IU) after 30 min. Subsequently, glucose levels were measured every 15 min.

IC50 (hPTP1B1–400 [1]) [µM] | SMILES | also measured
10.3 ± 0.51 | CC1(C)c2c(cnn2-c2ccc(C(N)=O)cc2)C[C@]2(C)[C@H]3C(=O)C=C4[C@@H]5C[C@@](C)(C(=O)O)CC[C@]5(C)CC[C@@]4(C)[C@]3(C)CC[C@@H]12 [compound 5f, (20β)-2′-(4-Carbamoylphenyl)-11-oxo-2′H-oleana-2,12-dieno[3,2-c]pyrazol-29-oic Acid] | –
6.83 ± 0.17 | CC1(C)c2c(cnn2-c2ccc(C#N)cc2)C[C@]2(C)[C@H]3C(=O)C=C4[C@@H]5C[C@@](C)(C(=O)O)CC[C@]5(C)CC[C@@]4(C)[C@]3(C)CC[C@@H]12 [compound 5d, (20β)-2′-(4-Cyanophenyl)-11-oxo-2′H-oleana-2,12-dieno[3,2-c]pyrazol-29-oic Acid] | –
2.08 ± 0.04 | CC1(C)c2c(cnn2-c2ccc(SC(F)(F)F)cc2)C[C@]2(C)[C@H]3C(=O)C=C4[C@@H]5C[C@@](C)(C(=O)O)CC[C@]5(C)CC[C@@]4(C)[C@]3(C)CC[C@@H]12 [compound 5c, (20β)-11-Oxo-2′-[4-(trifluoromethylthio)phenyl]-2′H-oleana-2,12-dieno[3,2-c]pyrazol-29-oic Acid] | –
2.29 ± 0.15 | CC1(C)c2c(cnn2-c2ccc(OC(F)(F)F)cc2)C[C@]2(C)[C@H]3C(=O)C=C4[C@@H]5C[C@@](C)(C(=O)O)CC[C@]5(C)CC[C@@]4(C)[C@]3(C)CC[C@@H]12 [compound 5a, (20β)-11-Oxo-2′-[4-(trifluoromethoxy)phenyl]-2′H-oleana-2,12-dieno[3,2-c]pyrazol-29-oic acid] | –
6.19 ± 0.58 | CC1(C)c2c(cnn2-c2ccc(OC(F)F)cc2)C[C@]2(C)[C@H]3C(=O)C=C4[C@@H]5C[C@@](C)(C(=O)O)CC[C@]5(C)CC[C@@]4(C)[C@]3(C)CC[C@@H]12 [compound 5b, (20β)-2′-[4-(Difluoromethoxy)phenyl]-11-Oxo-2′H-oleana-2,12-dieno[3,2-c]pyrazol-29-oic Acid] | –

Further lines, the compound ahead of its results:

SMILES | IC50 (hPTP1B1–400 [1]) [µM] | also measured
CC1(C)c2[nH]c3ccc(SC(F)(F)F)cc3c2C[C@]2(C)[C@H]3C(=O)C=C4[C@@H]5C[C@@](C)(C(=O)O)CC[C@]5(C)CC[C@@]4(C)[C@]3(C)CC[C@@H]12 [compound 4c, (20β)-5′-(Trifluormethylthio)-11-oxo-1′H-oleana-2,12-dieno[3,2-b]indol-29-oic Acid] | 5.6 ± 0.12 | –
CC1(C)c2[nH]c3ccc(C(=O)O)cc3c2C[C@]2(C)[C@H]3C(=O)C=C4[C@@H]5C[C@@](C)(C(=O)O)CC[C@]5(C)CC[C@@]4(C)[C@]3(C)CC[C@@H]12 [compound 4e, (20β)-5′-Carboxy-11-oxo-1′H-oleana-2,12-dieno[3,2-b]indol-29-oic Acid] | 4.33 ± 0.58 | inhibition type (hPTP1B1–400 [2]): uncompetitive; Ki (hPTP1B1–400 [2]): 4.05 ± 0.67 µM; Km (hPTP1B1–400 [2]): 990 ± 190 µM; Vmax (hPTP1B1–400 [2]): 1.64 ± 0.23 mM/min
CC1(C)c2[nH]c3ccc(C#N)cc3c2C[C@]2(C)[C@H]3C(=O)C=C4[C@@H]5C[C@@](C)(C(=O)O)CC[C@]5(C)CC[C@@]4(C)[C@]3(C)CC[C@@H]12 [compound 4d, (20β)-5′-Cyano-11-oxo-1′H-oleana-2,12-dieno[3,2-b]indol-29-oic Acid] | 22.4 ± 0.53 | –
CC1(C)c2[nH]c3ccc(C(N)=O)cc3c2C[C@]2(C)[C@H]3C(=O)C=C4[C@@H]5C[C@@](C)(C(=O)O)CC[C@]5(C)CC[C@@]4(C)[C@]3(C)CC[C@@H]12 [compound 4f, (20β)-5′-Carbamoyl-11-oxo-1′H-oleana-2,12-dieno[3,2-b]indol-29-oic Acid] | 9.3 ± 0.25 | –
CC1(C)c2[nH]c3ccc(OC(F)(F)F)cc3c2C[C@]2(C)[C@H]3C(=O)C=C4[C@@H]5C[C@@](C)(C(=O)O)CC[C@]5(C)CC[C@@]4(C)[C@]3(C)CC[C@@H]12 [compound 4a, (20β)-5′-(Trifluoromethoxy)-11-oxo-1′H-oleana-2,12-dieno[3,2-b]indol-29-oic Acid] | 2.13 ± 0.13 | inhibition type (hPTP1B1–400 [2]): uncompetitive; Ki (hPTP1B1–400 [2]): 0.74 ± 0.1 µM; Km (hPTP1B1–400 [2]): 1840 ± 190 µM; Vmax (hPTP1B1–400 [2]): 1.06 ± 0.24 mM/min
CC1(C)[C@@H](O)CC[C@]2(C)[C@H]3C(=O)C=C4[C@@H]5C[C@@](C)(C(=O)O)CC[C@]5(C)CC[C@@]4(C)[C@]3(C)CC[C@@H]12 [GA, Glycyrrhetinic acid, reference compound] | – | glycemia variation in ITT [3]: markedly decrease glycemia variation
